Laboratory results from PMC5681660, “Reduced hepatitis B and D viral entry using clinically applied drugs as novel inhibitors of the bile acid transporter NTCP” (Scientific Reports, 2017).
Where a name gives a salt, the structure may show the parent alone.

Target: T1, human NTCP (Homo sapiens, UniProt Q14973)
T1 sequence (Q14973 1-349): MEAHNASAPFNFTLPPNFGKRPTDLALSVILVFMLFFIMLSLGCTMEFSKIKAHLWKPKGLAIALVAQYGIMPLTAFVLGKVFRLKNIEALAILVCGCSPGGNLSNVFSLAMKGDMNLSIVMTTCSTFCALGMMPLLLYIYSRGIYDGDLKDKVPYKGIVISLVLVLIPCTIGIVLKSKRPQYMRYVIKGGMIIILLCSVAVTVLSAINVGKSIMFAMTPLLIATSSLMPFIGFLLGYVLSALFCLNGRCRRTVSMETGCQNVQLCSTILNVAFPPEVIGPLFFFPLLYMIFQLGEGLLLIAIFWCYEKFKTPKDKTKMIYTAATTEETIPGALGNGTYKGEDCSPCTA
Assay: Screening taurocholate uptake assay (96-well, [14C]taurocholate, 10 µM drug)
Conditions: for B-score functional assay: 10 µM drug

[1] = combined ranking of functional and binding screening assays
[2] = ranking over the functional and the binding screening assay
[3] = screening taurocholate uptake, B-score

Compound	Ranking score [1]	B-score functional assay (screening taurocholate uptake)	Ranking score [2]	further results
CN1CCN(C(c2ccccc2)c2ccccc2)CC1.Cl [Cyclizine hydrochloride]	578.424	-0.953	–	–
C[C@@H]1C[C@@H]([C@H](O)CC2CC(=O)NC(=O)C2)C(=O)[C@@H](C)C1 [Cycloheximide]	464.697	0.172	–	–
CN(C)CCOC(=O)C(c1ccccc1)C1(O)CCCC1 (centres unmarked) [Cyclopentolate hydrochloride]	624.063	-0.521	–	–
Nc1ccc(S(=O)(=O)c2ccc(N)cc2)cc1 [Dapsone]	–	0.012	186.888	–
CC(=O)N(O)CCCCCNC(=O)CCC(=O)N(O)CCCCCNC(=O)CCC(=O)N(O)CCCCCN [Deferoxamine mesylate]	–	-0.936	277.171	–
CC[N+](CC)(CC(=O)Nc1c(C)cccc1C)Cc1ccccc1 [Denatonium benzoate]	531.85	-0.069	–	–
CNCCCN1c2ccccc2CCc2ccccc21 [Desipramine hydrochloride]	–	–	–	B-score functional assay (Prestwick library screen, taurocholate uptake): 0.022; Ranking score (ranking score beside the functional and binding assay B-scores of the screen): 719.8
CC(=O)OCC(=O)[C@@]1(O)[C@H](C)C[C@H]2[C@@H]3CCC4=CC(=O)C=C[C@]4(C)[C@@]3(F)[C@@H](O)C[C@@]21C [Dexamethasone acetate]	586.678	0.046	–	–
CC(=O)Oc1cccc2c1C(=O)c1c(OC(C)=O)cc(C(=O)O)cc1C2=O [Diacerein]	–	-4.175	199.08	–
CN(C)CCN1C(=O)c2ccccc2N(C)c2ccccc21.Cl [Dibenzepine hydrochloride]	501.825	-0.713	–	–
CCCCOc1cc(C(=O)NCCN(CC)CC)c2ccccc2n1 [Dibucaine]	1210.75	–	–	B-score functional assay [3]: 1.579
N#CC(c1ccc(Cl)cc1)c1c(Cl)cc(-n2ncc(=O)[nH]c2=O)cc1Cl (centres unmarked) [Diclazuril]	–	-9.074	46.9894	–
O=C(O)Cc1ccccc1Nc1c(Cl)cccc1Cl [Diclofenac sodium]	464.103	-1.237	–	–
CC/C(=C(/CC)c1ccc(O)cc1)c1ccc(O)cc1 [Diethylstilbestrol]	–	-0.349	262.907	–
O=C(O)c1cc(-c2ccc(F)cc2F)ccc1O [Diflunisal]	–	-4.496	134.198	–
CN[C@@H]1[C@H](O[C@H]2[C@H](O[C@H]3[C@H](O)[C@@H](O)[C@H](NC(=N)N)[C@@H](O)[C@@H]3NC(=N)N)O[C@@H](C)[C@]2(O)CO)O[C@@H](CO)[C@H](O)[C@H]1O [Dihydrostreptomycin sulfate]	–	-2.479	143.478	–
COc1cc(C(=O)OCCCN2CCCN(CCCOC(=O)c3cc(OC)c(OC)c(OC)c3)CC2)cc(OC)c1OC.Cl.Cl [Dilazep dihydrochloride]	649.692	-0.659	–	–
CN(C(=O)C(Cl)Cl)c1ccc(OC(=O)c2ccco2)cc1 [Diloxanide furoate]	1159.98	–	–	B-score functional assay [3]: 1.688
CCCCc1cc2ccccc2c(OCCN(C)C)n1 [Dimethisoquin hydrochloride]	–	-0.419	238.967	–
CCCCC[C@H](O)/C=C/[C@@H]1[C@@H](C/C=C\CCCC(=O)O)[C@@H](O)C[C@H]1O [Dinoprost trometamol]	615.067	0.508	–	–
COc1ccc(-c2cc(=O)c3c(O)cc(O[C@@H]4O[C@H](CO[C@@H]5O[C@@H](C)[C@H](O)[C@@H](O)[C@H]5O)[C@@H](O)[C@H](O)[C@H]4O)cc3o2)cc1O [Diosmin]	–	-1.635	207.123	–
C[N+]1(C)CCC(=C(c2ccccc2)c2ccccc2)CC1 [Diphemanil methylsulfate]	1220.85	–	–	B-score functional assay [3]: 2.82
CN1CCC(OC(c2ccccc2)c2ccccc2)CC1 [Diphenylpyraline hydrochloride]	–	-0.425	142.127	–
CNCC(O)c1ccc(OC(=O)C(C)(C)C)c(OC(=O)C(C)(C)C)c1 (centres unmarked) [Dipivefrin hydrochloride]	1200.98	–	–	B-score functional assay [3]: 1.926
CCN(CC)C(=S)SSC(=S)N(CC)CC [Disulfiram]	–	-4.037	82.3772	–
C[C@]12N[C@H](Cc3ccccc31)c1ccccc12 [Dizocilpine maleate]	484.42	-0.357	–	–
CC(=O)O[C@@]12CO[C@@H]1C[C@H](O)[C@@]1(C)C(=O)[C@H](O)C3=C(C)[C@@H](OC(=O)[C@H](O)[C@@H](NC(=O)OC(C)(C)C)c4ccccc4)C[C@@](O)([C@@H](OC(=O)c4ccccc4)[C@H]21)C3(C)C [Docetaxel]	–	-5.513	106.066	–
CN(CCOc1ccc(NS(C)(=O)=O)cc1)CCc1ccc(NS(C)(=O)=O)cc1 [Dofetilide]	626.449	-0.213	–	–

Compound	Ranking score [1]	B-score functional assay (screening taurocholate uptake)	Ranking score [2]	further results
CS(=O)(=O)O.O=C(O[C@H]1C[C@H]2CC3C[C@@H](C1)N2CC3=O)c1c[nH]c2ccccc12 [Dolasetron mesilate]	1169.41	–	–	B-score functional assay [3]: 1.844
O=c1[nH]c2ccccc2n1CCCN1CCC(n2c(=O)[nH]c3cc(Cl)ccc32)CC1 [Domperidone]	475.277	-1.309	–	–
CCN(CC)CCOC(=O)C(c1ccccc1)C1CCCCC1 (centres unmarked) [Drofenine hydrochloride]	532.5	-0.177	–	–
CCCCOc1ccc(C(=O)CCN2CCCCC2)cc1 [Dyclonine hydrochloride]	591.312	-0.08	–	–
CC(=O)[C@H]1CC[C@H]2[C@@H]3C=CC4=CC(=O)CC[C@@]4(C)[C@@H]3CC[C@]12C [Dydrogesterone]	511.223	-1.016	–	–
O=c1c2ccccc2[se]n1-c1ccccc1 [Ebselen]	–	-4.734	12.2474	–
Clc1ccc(COC(Cn2ccnc2)c2ccc(Cl)cc2Cl)cc1 (centres unmarked) [Econazole nitrate]	–	-2.794	155.949	–
CCOCCn1c(N2CCCN(C)CC2)nc2ccccc21 [Emedastine]	501.772	-0.5	–	–
C=CCOC(Cn1ccnc1)c1ccc(Cl)cc1Cl (centres unmarked) [Enilconazole]	592.625	-0.129	–	–
COc1cc(C)nc(-n2nc(C)cc2OC)n1 [Epirizole]	–	0.634	209.705	–
C[C@]12CC[C@H]3C(=CCc4cc(O)ccc43)[C@@H]1CCC2=O [Equilin]	–	-2.643	264.641	–
C#Cc1cccc(Nc2ncnc3cc(OCCOC)c(OCCOC)cc23)c1 [Erlotinib]	–	-3.126	239.996	–
CN(C)CCC[C@@]1(c2ccc(F)cc2)OCc2cc(C#N)ccc21 [Escitalopram oxalate]	540.899	0.103	–	–
CNC(=O)Oc1ccc2c(c1)[C@]1(C)CCN(C)[C@@H]1N2C [Eserine hemisulfate salt]	–	-0.074	269.255	–
C[C@]12CC[C@@H]3c4ccc(O)cc4CC[C@H]3[C@@H]1CC[C@@H]2O [Estradiol-17 beta]	–	-4.121	76.8375	–
C[C@]12CC[C@@H]3c4ccc(OC(=O)N(CCCl)CCCl)cc4CC[C@H]3[C@@H]1CC[C@@H]2O [Estramustine]	–	-1.527	134.744	–
C[C@]12CC[C@@H]3c4ccc(O)cc4CC[C@H]3[C@@H]1C[C@@H](O)[C@@H]2O [Estriol]	589.644	0.325	–	–
C[C@]12CC[C@@H]3c4ccc(OS(=O)(=O)O)cc4CC[C@H]3[C@@H]1CCC2=O [Estropipate]	–	-4.027	54.037	–
CC[C@@H](CO)NCCN[C@@H](CC)CO [Ethambutol dihydrochloride]	–	-3.373	218.945	–
CCN(CC)C(=O)c1ccc(O)c(OC)c1 [Ethamivan]	538.826	-1.181	–	–
C#C[C@]1(O)CC[C@H]2[C@@H]3CCc4cc(O)ccc4[C@H]3CC[C@@]21C [Ethinylestradiol]	–	-1.799	213.127	–
CCc1cc(C(N)=S)ccn1 [Ethionamide]	–	0.084	210.286	–
C#C[C@]1(OC(C)=O)CC[C@H]2[C@@H]3CCC4=C[C@@H](OC(C)=O)CC[C@@H]4[C@H]3CC[C@@]21C [Ethynodiol diacetate]	–	-1.671	238.458	–
C#C[C@]1(O)CC[C@H]2[C@@H]3CCc4cc(OC)ccc4[C@H]3CC[C@@]21C [Ethynylestradiol 3-methyl ether]	552.584	-0.011	–	–
CCc1cccc(CC)c1NC(=O)CN(CC(=O)O)CC(=O)O [Etifenin]	532.717	-0.065	–	–
CCNCC(O)c1cccc(O)c1 (centres unmarked) [Etilefrine hydrochloride]	503.552	-0.021	–	–
CCc1cccc2c3c([nH]c12)C(CC)(CC(=O)O)OCC3 (centres unmarked) [Etodolac]	–	-0.274	112.748	–
